Measurements reported in patent publication US6750256B1, “Use of aromatic aldehydes as insecticides” (Proguard, Inc., priority 1994, dated 2004).

Legend:
[1] = tested on: thrips insects (Frankliniella occidentalis); experiment: Residual activity on treated filter paper against thrips; assay type: in vivo; conditions: rehydrated 24 and 72 hours after spraying, thrips exposed one hour
Description: In the first experiment, two ml of two concentrations of CNMA (0.3 and 1%) were sprayed on filter paper (Whatman). As a negative control, two ml of water was also sprayed on filter paper. Twenty-four hours later, two ml of water were sprayed on treatment and control filter paper, which were then dried for 30 min. Approximately 30 thrips insects (Frankliniella occidentalis) were introduced onto the treated filter papers and the number of F. occidentalis were observed after one hour. Mean mortality was calculated for each treatment. After 72 hours, the treated filter papers were flipped over and only the negative control filter paper and the filter paper treated with 1% CNMA were sprayed with 2 ml of water and allowed to dry for 30 minutes. Approximately 30 thrips were introduced onto the two treated filter papers and after one hour the number of dead F. occidentalis were observed and the mean mortality calculated for each treatment. A similar assay was conducted using AHCNMA. Mean mortality was higher for rehydrated filter papers compared to non-rehydrated filter papers over time.

[2] = tested on: larvae of Culex quinquefasciatus mosquito; experiment: Mosquito larvicidal bioassay; assay type: in vivo
Description: Larvicidal activity of test formulations at varying concentrations was tested in a double blind bioassay on larvae of Culex quinquefasciatus mosquito. Twenty-five late 3rd-instar larvae of Culex quinquefasciatus were placed in 100×80 mm Purex #3250 glass containers. 250 ml distilled H2O was pipetted into the containers. One ml of test formulation containing 10 to 25,000 ppm cinnamic aldehyde in vehicle (2% by volume Tween 80 and 6% sodium bicarbonate in distilled H2O) was pipetted into each container. A control blank using 1 ml distilled H2O instead of a test formulation was also prepared.
All treated and untreated glass containers were placed in temperature controlled room at 29° C. Each container was evaluated for larvae mortality at 24 hour intervals. The number of dead larvae were reported. See Table 5 for results of the bioassay. Concentrations above 5,000 ppm cinnamic aldehyde gave 90% mortality at 24 and 48 hours.

[3] = tested on: Adult male cockroaches (Dictyoptera; Blattelidae); experiment: German cockroach topical application bioassay; assay type: in vivo, German cockroaches; conditions: 2% (20,000 ppm) in aqueous vehicle (2% Tween 80, 6% NaHCO3); 5 ml spray; within five minutes
Description: Adult male cockroaches (Dictyoptera; Blattelidae) were used to evaluate insecticidal activity of cinnamic aldehyde and/or coniferyl aldehyde by a topical application method.
Twenty cockroaches were placed in stainless steel pails (20 liter) with lids. After one week provisioned with food, water and harborage, they were sprayed with 5 ml of a test formulation at arm's length (approximately 1 meter) using a Gilmour spray bottle. The number of dead or moribund cockroaches at 5 minutes, 30 minutes, 1 hour and 12 hours after treatment was counted and compared to those untreated (diluent only). Raid (active ingredients: permethrin, pyrethrins and PBO) was used as a positive control. Within five minutes, all cockroaches treated with 2% cinnamic aldehyde (20,000 ppm) in aqueous vehicle (2% Tween 80, 6% NaHCO3) were dead, as were all those treated with Raid. Ten percent of those treated with vehicle alone were dead in 30 minutes, with no further increase in mortality up to 12 hours.

[4] = tested on: melon aphids; experiment: Melon aphid whole plant spray with cinnamaldehyde and saponin; assay type: in vivo, Aphis gossypii Glover; conditions: whole plant sprayed to drip
Description: Whole nonflowering potted chrysanthemum plants were used to assay melon aphids. Two plants were treated for each treatment and two leaves, one from the top of the plant and one from the bottom of the plant, were sampled to determine the number of living and dead melon aphids. Three treatments were applied: 1.0% CNMA plus 0.5% saponin, 0.5% CNMA plus 0.25% saponin, and 0.5% saponin only. The whole plants were sprayed to “drip” on both the top and bottom sides of leaves. Results are presented as the proportion of aphids found dead. Results were as follows: control plant (0.5% saponin only) 14.8% ±4.5; 0.5% CNMA 48.3±16.1; 1.0% CNMA 72.0±11.2.

[5] = tested on: adult carpenter ants (Camponotus pennsylvanicus); experiment: Carpenter ant spray test; assay type: in vivo
Description: The effect of cinnamic aldehyde on adult carpenter ants (Camponotus pennsylvanicus) was evaluated as follows. Twenty adult ants were placed in a 20 liter stainless steel pail with lid. The test formulations were prepared and used within one hour and were shaken immediately before spraying the insects. 8 ml of test solution was sprayed with a fine spray (Gilmour hand sprayer). […] Cinnamic aldehyde (2%, 20,000 ppm) in 2% Tween 80 and 6% NaHCO3 in water gave 100% mortality at all time points. Vehicle in 2% Tween 80 and 6% NaHCO3. Raid (active ingredients: permethrin, pyrethrins and PBO) was used as a positive control and gave 90% mortality at 0.5 hr with 100% mortality at all other time points.

[6] = tested on: soft tick (Ornithodoros coriaceus); experiment: Tick treated filter paper test, soft ticks; assay type: in vivo
Description: In a double blind experiment, filter papers (90 mm) (Whatman) were treated to uniform saturation with 1 ml of test formula and placed in 90 mm petri dishes. Ten arachnids were placed in each petri dish and the dish closed. […] The cinnamic aldehyde concentrations varied from 10-50,000 ppm in a vehicle of 2% Tween 80, 6% NaHCO3. The effect of vehicle alone or H2O (HPLC) was also tested. In separate experiments, the effects of the components of the vehicle were evaluated in comparison to water.

[7] = 1 ml of 100 ppm formulation in 250 ml H2O
[8] = 1 ml of 2,500 ppm formulation in 250 ml H2O
[9] = 1 ml of 5,000 ppm formulation in 250 ml H2O
[10] = 1 ml of 12,500 ppm formulation in 250 ml H2O
[11] = 1 ml of 25,000 ppm formulation in 250 ml H2O
[12] = 10 ppm in 2% Tween 80 and 6% NaHCO3
[13] = 100 ppm in 2% Tween 80 and 6% NaHCO3
[14] = 2,500 ppm in 2% Tween 80 and 6% NaHCO3
[15] = 5,000 ppm in 2% Tween 80 and 6% NaHCO3
[16] = 12,500 ppm in 2% Tween 80 and 6% NaHCO3
[17] = 25,000 ppm in 2% Tween 80 and 6% NaHCO3

O=C/C=C/c1ccccc1 [CNMA, cinnamic aldehyde]
residual activity in words [1]: residual activity
Percent Mortality (time) 24 hours ([2]; 1 ml of 10 ppm formulation (2% Tween 80, 6% sodium bicarbonate) in 250 ml H2O): 0%
Percent Mortality (time) 48 hours ([2]; 1 ml of 10 ppm formulation in 250 ml H2O): 0%
Percent Mortality (time) 24 hours [2, 7]: 2%
Percent Mortality (time) 48 hours [2, 7]: 2%
Percent Mortality (time) 24 hours [2, 8]: 4%
Percent Mortality (time) 48 hours [2, 8]: 4%
Percent Mortality (time) 24 hours [2, 9]: 8%
Percent Mortality (time) 48 hours [2, 9]: 20%
Percent Mortality (time) 24 hours [2, 10]: 90%
Percent Mortality (time) 48 hours [2, 10]: 90%
Percent Mortality (time) 24 hours [2, 11]: 100%
Percent Mortality (time) 48 hours [2, 11]: 100%
mortality ([2]; concentrations above 5,000 ppm, at 24 and 48 hours): 90%
cockroaches dead [3]: all
proportion of aphids found dead ([4]; 0.5% CNMA plus […] saponin): 48.3±16.1%
proportion of aphids found dead ([4]; 1.0% CNMA plus 0.5% saponin): 72.0±11.2%
mortality at 20000 ppm [5]: 100%
Number Dead 24 Hours (#/30) [6, 12]: 0 #/30
Number Dead 120 Hours (#/30) [6, 12]: 0 #/30
Number Dead 24 Hours (#/30) [6, 13]: 0 #/30
Number Dead 120 Hours (#/30) [6, 13]: 0 #/30
Number Dead 24 Hours (#/30) [6, 14]: 2/30
Number Dead 120 Hours (#/30) [6, 14]: 6/30
Number Dead 24 Hours (#/30) [6, 15]: 3/30
Number Dead 120 Hours (#/30) [6, 15]: 6/30
Number Dead 24 Hours (#/30) [6, 16]: 5/30
Number Dead 120 Hours (#/10) [6, 16]: 10/10
Number Dead 120 Hours (#/30) [6, 16]: 6/30
Number Dead 24 Hours (#/30) [6, 17]: 7/30
Number Dead 120 Hours (#/10) [6, 17]: 10/10
Number Dead 120 Hours (#/30) [6, 17]: 21/30
Number Dead 120 Hours (#/10) ([6]; 30,000 ppm in 2% Tween 80 and 6% NaHCO3): 10/10
Number Dead 120 Hours (#/10) ([6]; 35,000 ppm in 2% Tween 80 and 6% NaHCO3): 10/10
Number Dead 120 Hours (#/10) ([6]; 40,000 ppm in 2% Tween 80 and 6% NaHCO3): 10/10
Number Dead 120 Hours (#/10) ([6]; 45,000 ppm in 2% Tween 80 and 6% NaHCO3): 10/10
Number Dead 120 Hours (#/10) ([6]; 50,000 ppm in 2% Tween 80 and 6% NaHCO3): 10/10
mortality at 12500 ppm ([6]; Ornithodoros coriaceus): 100%
